What was measured:
Format in all cases: in vivo
Setaria faberi (SETFA) [1] = test: Pre-emergence glasshouse herbicide test; conditions: PRE Application, after 13 days
[2] = test system: Echinochloa crus-galli (ECHCG); test: Pre-emergence glasshouse herbicide test; conditions: PRE Application, after 13 days
Solanum nigrum (SOLNI) [3] = test: Pre-emergence glasshouse herbicide test; conditions: PRE Application, after 13 days
Setaria faberi (SETFA) [4] = test: Post-emergence glasshouse herbicide test; conditions: POST Application, after 13 days
Procedure, shortened: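 This post-emergence glasshouse herbicide test used SETFA plants raised in pots of standard soil for 8 days under controlled conditions (24/16° C., 14 hours light, 65% humidity). An aqueous spray made from acetone/water (50:50) with 0.5% Tween 20 was applied. Plants were watered twice daily, and percentage plant damage was assessed 13 days later.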

[5] = test system: Ipomoea hederacea (IPOHE); test: Post-emergence glasshouse herbicide test; conditions: POST Application, after 13 days
[6] = test system: Alopecurus myosuroides (ALOMY); test: Pre-emergence glasshouse herbicide test; conditions: PRE Application, after 13 days
Procedure, shortened: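 This pre-emergence glasshouse test used pots of standard soil sown with ALOMY seed and cultivated for one day under controlled conditions of 24/16° C., 14 hours light and 65% humidity. An aqueous spray from an acetone/water (50:50) formulation with 0.5% Tween 20 was applied. After 13 days of further growth with twice-daily watering, plant damage was rated as a percentage.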

[7] = test system: Amaranthus retoflexus (AMARE); test: Post-emergence glasshouse herbicide test; conditions: POST Application, after 13 days
[8] = test system: Amaranthus retoflexus (AMARE); test: Pre-emergence glasshouse herbicide test; conditions: PRE Application, after 13 days
[9] = test system: Alopecurus myosuroides (ALOMY); test: Post-emergence glasshouse herbicide test; conditions: POST Application, after 13 days
Procedure, shortened: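 In this glasshouse post-emergence test, ALOMY plants were cultivated in standard soil for 8 days under controlled conditions (24/16° C. day/night, 14 hours light, 65% humidity). They were then treated with a spray derived from an acetone/water (50:50) formulation with 0.5% Tween 20, grown on with watering twice daily, and rated for percentage damage after 13 days.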

Solanum nigrum (SOLNI) [10] = test: Post-emergence glasshouse herbicide test; conditions: POST Application, after 13 days
Procedure, shortened: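 This glasshouse post-emergence herbicide test used Solanum nigrum plants sown in standard soil and cultivated for 8 days under controlled conditions (24/16° C. day/night, 14 hours light, 65% humidity). An aqueous spray from an acetone/water (50:50) solution with 0.5% Tween 20 was applied. Plants were watered twice daily, and damage to each plant was assessed as a percentage 13 days later.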

[11] = test system: Echinochloa crus-galli (ECHCG); test: Post-emergence glasshouse herbicide test; conditions: POST Application, after 13 days
[12] = test system: Ipomoea hederacea (IPOHE); test: Pre-emergence glasshouse herbicide test; conditions: PRE Application, after 13 days
[13] = test system: Ipomoea hederacea (IPOHE); test: Pre-emergence glasshouse herbicide test; conditions: PRE Application, 1000 g/h, after 13 days
[14] = test system: Amaranthus retoflexus (AMARE); test: Pre-emergence glasshouse herbicide test; conditions: PRE Application, 1000 g/h, after 13 days
[15] = test system: Echinochloa crus-galli (ECHCG); test: Pre-emergence glasshouse herbicide test; conditions: PRE Application, 1000 g/h, after 13 days
Setaria faberi (SETFA) [16] = test: Pre-emergence glasshouse herbicide test; conditions: PRE Application, 1000 g/h, after 13 days
Solanum nigrum (SOLNI) [17] = test: Pre-emergence glasshouse herbicide test; conditions: PRE Application, 1000 g/h, after 13 days
[18] = test system: Ipomoea hederacea (IPOHE); test: Post-emergence glasshouse herbicide test; conditions: POST Application, 1000 g/h, after 13 days
[19] = test system: Amaranthus retoflexus (AMARE); test: Post-emergence glasshouse herbicide test; conditions: POST Application, 1000 g/h, after 13 days
[20] = test system: Echinochloa crus-galli (ECHCG); test: Post-emergence glasshouse herbicide test; conditions: POST Application, 1000 g/h, after 13 days

| SMILES | percentage damage caused to the plant, SETFA (Setaria faberi (SETFA) [1]; applied at 250 g/ha) | percentage damage caused to the plant, ECHCG ([2]; applied at 250 g/ha) | percentage damage caused to the plant, SOLNI (Solanum nigrum (SOLNI) [3]; applied at 250 g/ha) | percentage damage caused to the plant, SETFA (Setaria faberi (SETFA) [4]; applied at 250 g/ha) | percentage damage caused to the plant, IPOHE ([5]; applied at 250 g/ha) | percentage damage caused to the plant, ALOMY ([6]; applied at 250 g/ha) | percentage damage caused to the plant, AMARE ([7]; applied at 250 g/ha) | percentage damage caused to the plant, AMARE ([8]; applied at 250 g/ha) | percentage damage caused to the plant, ALOMY ([9]; applied at 250 g/ha) | percentage damage caused to the plant, SOLNI (Solanum nigrum (SOLNI) [10]; applied at 250 g/ha) | percentage damage caused to the plant, ECHCG ([11]; applied at 250 g/ha) | percentage damage caused to the plant, IPOHE ([12]; applied at 250 g/ha) | further results |
| --- | --- | --- | --- | --- | --- | --- | --- | --- | --- | --- | --- | --- | --- |
| Cn1nnnc1NC(=O)c1nc2ccc(F)cc2n(-c2ccccc2)c1=O [Compound 5.010] | 1 (1=0-19%) | 1 (1=0-19%) | 4 (4=60-79%) | 4 (4=60-79%) | 5 (5=80-100%) | 1 (1=0-19%) | 5 (5=80-100%) | 5 (5=80-100%) | 1 (1=0-19%) | 5 (5=80-100%) | 3 (3=40-59%) | 2 (2=20-39%) |  |
| Cc1cc(-n2c(=O)c(C(=O)Nc3nnnn3C)nc3ccccc32)ccc1F [Compound 5.028] |  |  |  |  |  |  |  |  |  |  |  |  | percentage damage caused to the plant, SETFA (Setaria faberi (SETFA) [1]; applied at 500 g/ha): 5 (5=80-100%); percentage damage caused to the plant, ECHCG ([2]; applied at 500 g/ha): 5 (5=80-100%); percentage damage caused to the plant, SOLNI (Solanum nigrum (SOLNI) [3]; applied at 500 g/ha): 5 (5=80-100%); percentage damage caused to the plant, SETFA (Setaria faberi (SETFA) [4]; applied at 500 g/ha): 5 (5=80-100%); percentage damage caused to the plant, IPOHE ([5]; applied at 500 g/ha): 5 (5=80-100%); percentage damage caused to the plant, ALOMY ([6]; applied at 500 g/ha): 3 (3=40-59%); percentage damage caused to the plant, AMARE ([7]; applied at 500 g/ha): 5 (5=80-100%); percentage damage caused to the plant, AMARE ([8]; applied at 500 g/ha): 5 (5=80-100%); percentage damage caused to the plant, ALOMY ([9]; applied at 500 g/ha): 4 (4=60-79%); percentage damage caused to the plant, SOLNI (Solanum nigrum (SOLNI) [10]; applied at 500 g/ha): 5 (5=80-100%); percentage damage caused to the plant, ECHCG ([11]; applied at 500 g/ha): 5 (5=80-100%); percentage damage caused to the plant, IPOHE ([12]; applied at 500 g/ha): 5 (5=80-100%) |
| Cn1nnnc1NC(=O)c1nc2ccccc2n(-c2ccoc2)c1=O [Compound 5.013] | 2 (2=20-39%) | 2 (2=20-39%) | 5 (5=80-100%) | 1 (1=0-19%) | 4 (4=60-79%) | 1 (1=0-19%) | 5 (5=80-100%) | 5 (5=80-100%) | 1 (1=0-19%) | 5 (5=80-100%) | 1 (1=0-19%) | 4 (4=60-79%) |  |
| Cn1nnnc1NC(=O)c1nc2ccccc2n(-c2ccc([N+](=O)[O-])cc2)c1=O [Compound 5.022] |  |  |  |  |  |  |  |  |  |  |  |  | percentage damage caused to the plant, SETFA (Setaria faberi (SETFA) [4]; 1000 g/h): 4 (4=60-79%); percentage damage caused to the plant, IPOHE [13]: 4 (4=60-79%); percentage damage caused to the plant, AMARE [14]: 5 (5=80-100%); percentage damage caused to the plant, ALOMY ([6]; 1000 g/h): 3 (3=40-59%); percentage damage caused to the plant, ECHCG [15]: 5 (5=80-100%); percentage damage caused to the plant, SETFA (Setaria faberi (SETFA) [16]): 5 (5=80-100%); percentage damage caused to the plant, SOLNI (Solanum nigrum (SOLNI) [17]): 5 (5=80-100%); percentage damage caused to the plant, IPOHE [18]: 5 (5=80-100%); percentage damage caused to the plant, AMARE [19]: 5 (5=80-100%); percentage damage caused to the plant, ALOMY ([9]; 1000 g/h): 2 (2=20-39%); percentage damage caused to the plant, ECHCG [20]: 4 (4=60-79%); percentage damage caused to the plant, SOLNI (Solanum nigrum (SOLNI) [10]; 1000 g/h): 5 (5=80-100%) |
